# Test results published in patent CN109223750A, “琥珀酸在防治对虾肠炎中的应用” (South China Sea Fisheries Research Institute Chinese …, priority 2018, dated 2019).
# Read-outs that look alike come from different tables or passages of the source.
# Assays:
# [1] = test system: TNF-α; conditions: 7 days, versus enteritis model group
# [2] = test system: tilapia-derived Streptococcus agalactiae β-haemolysin/cytolysin (罗非鱼源无乳链球菌β-溶血/溶细胞素); conditions: cited from earlier work
# [3] = cited from earlier work
# [4] = test system: shrimp intestinal mucosa (对虾 肠道黏膜); conditions: 7 days; for intestinal mucosal damage (histopathology): HE, ×200
# [5] = test system: bacteria (细菌); conditions: by raising bacterial proton motive force; cited from earlier work
# [6] = test system: HIF-1α; conditions: through activation of HIF-1α; cited from earlier work
# [7] = test system: IL-1β; conditions: 7 days, versus enteritis model group
# [8] = test system: NF-κB; conditions: 7 days, versus enteritis model group
# [9] = test system: IL-10; conditions: 7 days, versus enteritis model group
smiles,measurement,setting,value
O=C(O)CCC(=O)O [琥珀酸],TNF-α expression,[1]; high dose: 1% in feed,显著降低
same,TNF-α expression,[1]; low dose: 0.25% in feed,显著降低
same,activity of β-haemolysin/cytolysin,[2],抑制
same,antibacterial and antioxidant function,[3]; in vivo,提高
same,feed conversion ratio,[3]; shrimp,降低
same,intestinal mucosal damage (histopathology),[4]; high dose: 1% succinic acid in basal feed,"肠道黏膜损伤已修复,形态完整,结构清晰"
same,intestinal epithelial cell height,"[4]; high dose: 1% succinic acid in basal feed, versus blank control group and versus low-dose group",均有明显增加
same,intestinal mucosal damage (histopathology),[4]; low dose: 0.25% succinic acid in basal feed,"肠道黏膜损伤已修复,形态完整,结构清晰"
same,intestinal epithelial cell height,"[4]; low dose: 0.25% succinic acid in basal feed, versus blank control group",有明显增加
same,sensitivity of bacteria to antibiotics,[5],能够提高细菌对抗生素的敏感性
same,"IL-1β secretion, inflammation",[6],诱导IL-1β分泌促进炎症
same,IL-1β expression,[7]; high dose: 1% in feed,显著降低
same,IL-1β expression,[7]; low dose: 0.25% in feed,显著降低
same,NF-κB expression,[8]; high dose: 1% in feed,显著降低
same,NF-κB expression,[8]; low dose: 0.25% in feed,显著降低
same,IL-10 expression,[9]; high dose: 1% in feed,显著降低
same,IL-10 expression,[9]; low dose: 0.25% in feed,显著降低
